According to patent US20050215490A1, “Polyene polyketides and methods of treating bacterial infections” (Ecopia BioSciences, Inc., priority 2003, published 2005):
≈ marks a conversion by molar mass, not a printed value. Where two headings read alike, the source gives them in different places.

Assays:
Assay type in all cases: cell-based
[1] = tested on: Bacillus megaterium (ATCC™ 14581); test: MIC, broth microdilution (NCCLS M7-A5); conditions: Priestia megaterium, ATCC14581; B. megaterium ATCC 14581; Mueller-Hinton; 35° C., 18 hours; read-out: MIC
Description: (§1) Antibacterial activity of Compounds 1 and 2 (Table 4) was measured by determining the minimal inhibitory concentration (MIC) necessary to obtain a complete inhibition of bacteria growth in eight indicator strains, namely Staphylococcus aureus (ATCC™ 6538P), Staphylococcus aureus MRS3 (ATCC™ 700699), Staphylococcus epidermidis (ATCC™ 12228), Bacillus subtilis (ATCC™ 23857), Bacillus megaterium (ATCC™ 14581), Enterococcus faecalis VRE-1 (ATCC™ 29212), Enterococcus faecalis VRE-2 (ATCC™ 51299) and Micrococcus luteus (ATCC™ 9341). Indicator strains preparation and MIC determination were performed according to the National Committee for Clinical Laboratory Standards (NCCLS) guideline M7-A5 Methods for Dilution Antimicrobial Susceptibility Tests for Bacteria That Grow Aerobically; Approved Standard-Fifth Edition. (NCCLS document M7-A5, ISBN 1-56238-394-9; NCCLS, 940 West Valley Road, Suite 1400, Wayne, Pa. 19087-1898 USA), the content of which is incorporated herein by reference.
(§2) Compounds 1 and 2 were prepared as 100× stock solution in DMSO, with concentrations ranging from 3.2 mg/ml to 0.00625 mg/ml (a two-fold dilution series over […]). An aliquot of each 100× stock solution was diluted 50-fold in test medium described below to give a set of ten (10) 2× solutions ranging from 64 to 0.125 μg/mL. 50 μl of each of the ten 2× solutions was aliquoted into the corresponding well of a 12-well row, with the final well reserved for medium alone control. Each test was made in duplicate.
(§3) Vancomycin (Sigma™) used as positive control compounds, was prepared as 2× stock solutions in sterile, double-distilled water (ddH2O) ranging from 64 μg/ml to […] (a two-fold dilution series over 10 points). An aliquot of 50 μl corresponding to each concentration (at 2×) was then transferred to 96-well microplates to obtain a series of eleven two-fold dilutions.
(§4) An isolated colony of each of the eight indicator strains was used to inoculate tubes containing 3 ml of test medium. Mueller-Hinton test medium was used for Staphylococcus aureus (ATCC™ 6538P), Staphylococcus aureus MRS3 (ATCC™ 700699), Staphylococcus epidermidis (ATCC™ 12228), Bacillus subtilis (ATCC™ 23857), Bacillus megaterium (ATCC™ 14581) and Micrococcus luteus (ATCC™ 9341) indicator strains, and BHI (Brain-Heart Infusion broth) test medium was used for Enterococcus faecalis VRE-1 (ATCC™ 29212) and Enterococcus faecalis VRE-2 (ATCC™ 51299) indicator strains. Cells were grown overnight at 28° C. with shaking. Inoculum density for each indicator strain was adjusted to OD600=0.1 in 5 ml 0.85% saline, then further diluted 1/100 in appropriate medium. 50 μl of the final dilution (in test medium) of each indicator strain was added to each well of a 12-well row. This brings the final dilution of the test article or control compound in solution to 1×. The final inoculum is approximately 5×10^5 CFU/ml.
(§5) The indicator strains were incubated with 11 concentrations of each of Compounds 1 and 2, Vancomycin (Sigma™) control compound and one media alone control. For MIC determination, assay plates were incubated at 35° C. for 18 hours.

[2] = tested on: Bacillus subtilis (ATCC™ 23857); test: MIC, broth microdilution (NCCLS M7-A5); conditions: ATCC23857, B. subtilis ATCC 23857, Mueller-Hinton, 35° C., 18 hours, read-out: MIC
Description: as §1, §2, §3, §4, §5

[3] = tested on: Enterococcus faecalis VRE-1 (ATCC™ 29212); test: MIC, broth microdilution (NCCLS M7-A5); conditions: E. faecalis ATCC 29212, BHI, 35° C., 18 hours, read-out: MIC
Description: as §1, §2, §3, §4, §5

[4] = tested on: Enterococcus faecalis VRE-2 (ATCC™ 51299); test: MIC, broth microdilution (NCCLS M7-A5); conditions: E. faecalis ATCC 51299, BHI, 35° C., 18 hours, read-out: MIC
Description: as §1, §2, §3, §4, §5

[5] = tested on: Micrococcus luteus (ATCC™ 9341); test: MIC, broth microdilution (NCCLS M7-A5); conditions: ATCC9341, M. luteus ATCC 9341, Mueller-Hinton, 35° C., 18 hours, read-out: MIC
Description: as §1, §2, §3, §4, §5

[6] = tested on: Staphylococcus aureus (ATCC™ 6538P); test: MIC, broth microdilution (NCCLS M7-A5); conditions: read-out: MIC
Description: as §1, §2, §3, §4, §5

[7] = tested on: Staphylococcus aureus MRS3 (ATCC™ 700699); test: MIC, broth microdilution (NCCLS M7-A5); conditions: read-out: MIC
Description: as §1, §2, §3, §4, §5

[8] = tested on: Staphylococcus epidermidis (ATCC™ 12228); test: MIC, broth microdilution (NCCLS M7-A5); conditions: read-out: MIC
Description: as §1, §2, §3, §4, §5

[9] = tested on: Staphylococcus aureus NRRL B-313 (ATCC™ 6538P); test: MIC at different pH; conditions: S. aureus ATCC 6538P
Description: Antibacterial activitiy of Compounds.3, 4, 5, 6 and 7 are accomplished using the same method in a panel of bacterial strains and Vancomycin as positive control.
Antibacterial efficacy of Compounds 1, 2, 3, 4, 5 and 6 on bacterial strain Staphylococcus aureus NRRL B-313 (ATCC™ 6538P) was determined at different pH concentrations.

[10] = ATCC6538P, S. aureus ATCC 6538P, Mueller-Hinton, 35° C., 18 hours
[11] = ATCC700699, S. aureus ATCC 700699, Mueller-Hinton, 35° C., 18 hours
[12] = ATCC12228, S. epidermidis ATCC 12228, Mueller-Hinton, 35° C., 18 hours

| Compound | MIC [1] [µg/mL] | MIC [2] [µg/mL] | MIC [3] [µg/mL] | MIC [4] [µg/mL] | MIC [5] [µg/mL] | MIC [6, 10] [µg/mL] | MIC ([6]; Table 6, S. aureus MSSA) [µg/mL] | MIC [7, 11] [µg/mL] | MIC ([7]; Table 6, S. aureus MRSA-hVISA) [µg/mL] | MIC [8, 12] [µg/mL] | MIC ([8]; Table 6, S. epidermidis) [µg/mL] | MIC ([9]; pH 5.0, read-out: MIC) [µg/mL] | MIC ([9]; pH 6.0, read-out: MIC) [µg/mL] | MIC ([9]; pH 7.0, read-out: MIC) [µg/mL] |
| --- | --- | --- | --- | --- | --- | --- | --- | --- | --- | --- | --- | --- | --- | --- |
| CC(=CC=CC=CC=CC=CC(C)C(OC1OC(C(=O)O)C(O)C(O)C1O)C(C)=CC(C)CCCC=CC(C)CC=CCCCN(C)C(=N)N)C(=O)NC1=C(O)CCC1=O (stereo not shown) [Compound 1, 3,4,5-trihydroxy-6-[1-[11-(2-hydroxy-5-oxocyclopent-1-enylcarbamoyl)-1-methyldodeca-2,4,6,8,10-pentaenyl]-2,4,10-trimethyl-16-(N-methyl-guanidino)-hexadeca-2,8,12-trienyloxy]-tetrahydropyran-2-carboxylic acid] | 1 (≈ 1.19 µM) | 1 (≈ 1.19 µM) | 8 to 16 (≈ 9.56 to 19.1 µM) | 16 (≈ 19.1 µM) | 4 (≈ 4.78 µM) | 2 (≈ 2.39 µM) | 2 (≈ 2.39 µM) | 4 (≈ 4.78 µM) | 4 (≈ 4.78 µM) | 4 (≈ 4.78 µM) | 4 (≈ 4.78 µM) | 0.125 (≈ 0.149 µM) | 0.25 (≈ 0.299 µM) | 1 (≈ 1.19 µM) |
| C\C(=C/C=C/C=C/C=C/C=C/C(C)C(OC1OC(C(=O)O)C(O)C(O)C1O)/C(C)=C/C(C)CCC/C=C/C(C)C/C=C/CCCNC(=N)N)C(=O)NC1=C(O)CCC1=O (stereo not shown) [Compound 2, 6-{16-guanidino-1-[11-(2-hydroxy-5-oxocyclopent-1-enylcarbamoyl)-1-methyldodeca-2,4,6,8,10-pentaenyl]-2,4,10-trimethylhexadeca-2,8,12-trienyloxy}-3,4,5-trihydroxy-tetrahydro-pyran-2-carboxylic acid] | 1 (≈ 1.22 µM) | 2 (≈ 2.43 µM) | 16 (≈ 19.4 µM) | 16 (≈ 19.4 µM) | 1 to 2 (≈ 1.22 to 2.43 µM) | 1 (≈ 1.22 µM) | 1 (≈ 1.22 µM) | 1 (≈ 1.22 µM) | 1 (≈ 1.22 µM) | 1 (≈ 1.22 µM) | 1 (≈ 1.22 µM) | 0.0625 (≈ 0.0759 µM) | 0.125 (≈ 0.152 µM) | 1 (≈ 1.22 µM) |
